Assay results as given in US5182295A, “Insecticidal benzofuran derivatives” (Roussel Uclaf, priority 1990, dated 1993).
In brackets after ≈: the same amount, converted by molar mass. Read-outs that look alike come from different tables or passages of the source.

Columns and labels:
Format in all cases: in vivo
Plasmopara viticola = experiment: Fungicide activity: tests on Plasmopara viticola (vine plants, leaf spray); conditions: 100 ppm of active material, relative to non-treated control; for % of effectiveness on plasmopara viticola, Grenache vine: ten days after contamination
Experimental: Young vine plants from cuttings (Grenache N variety, clone 70) were cultivated in a greenhouse (daytime temperature: 30° C., night-time temperature: 25° C.) on an earth/compost/sand mixture, (1/3-1/3-1/3). Two days before the test, the plants were moved into a culture chamber with the same temperature conditions and humidity 60% in the day, 80% at night. The product was dissolved in "matrix A" at a concentration of 100 ppm just before use. The treatment took place by spraying the solution on the leaves until saturation Contamination was carried out with a suspension of zoospores of Plasmopara viticola taken immediately before the test using 50,000 zoospores per ml. Drops of suspension (20 micro-liters) were deposited on the abaxial surface of the leaves. The plants were then kept for 24 hours in an atmosphere saturated with water-vapour. Then, the atmosphere was returned to the humidity of the culture chamber (60% in the day, 80% at night). The reading was taken ten days after contamination by measuring the development of clusters of sporangiophores on the abaxial surface of the leaves. The effectiveness of the product was calculated relative to a non-treated control. The same type of test was carried out on a Chardonnay vine.
The results obtained in % of effectiveness on plasmopara viticola at 100 ppm of active material were as follows: […]

[1] = test system: Spodoptera Littoralis (L3 stage larvae); experiment: whole plant or invertebrate; conditions: 168 h, read-out: LC50, Spodoptera
Experimental: L3 stage SPODOPTERA LITTORALIS larvae were used and the operation was carried out at 22° C. at relative humidity conditions of 50%. Petri dishes were used containing a damp circular piece of filter paper and in each dish, two bean plant leaves were placed and treated with hydroacetonic solution (50-50) containing the product under test. The dead larvae were counted at the end of 7 days and the concentration LC50 were expressed in ppm.

Tetranychus Urticae = experiment: Acaricide study on Tetranychus Urticae; conditions: 72 h, read-out: LC50, Tetranychus
Experimental: Bean plants were used comprising 2 leaves infested with 30 females of Tetranychus Urticae per leaf and put under an aerated hood under a lighted ceiling which was constantly on. The plants were treated with a Fisher gun with 4 ml of toxic solution per plant of a mixture with an equal volume of water and acetone. After leaving to dry for half an hour the infestation was proceeded with and mortality checks were carried out at the end of 3 days. The LC50 dose was determined and the results are set out in the table below, taking account of the following values: […]

Musca Domestica (Fly) = experiment: Insecticide activity: lethal effect on Musca Domestica (topical application); conditions: 6-day-old female flies, topical application of acetone solution on dorsal thorax, 22° C.
Experimental: 6-day-old female flies weighing 18 to 20 mg were used and the operation was carried out at 22° C. at relative humidity conditions of 50%. The products were administered by topical application of an acetone solution of 1 g/l on the dorsal thorax of the insects. The LC50 dose was determined and was expressed in ppm.

Aphis Cracivora = experiment: Insecticide activity: activity on Aphis Cracivora; conditions: female apter on sprayed broad bean leaves, 24 hours
Experimental: 2 ml of water acetone solution (50/50) was sprayed on broad bean leaves (vicia fabae) until the leaves were running with solution. After drying, 15 female apter of Aphis cracivora were deposited on the leaves and the mixture was kept on the damp filter paper inside a Petri dish. 24 hours after the start of contact, the number of dead insects was determined and the LC50 dose expressed in ppm were determined.

[2] = L3 larvae, contact and ingestion, treated bean leaves, 7 days, 22° C.
[3] = females on treated bean plants, 3 days

Row | Structure (SMILES) | % of effectiveness on plasmopara viticola, Grenache vine (Plasmopara viticola) [%] | LC50 [1, 2] [µg/mL] | LC50 (Tetranychus Urticae; [3]) [µg/mL] | LC50 (Musca Domestica (Fly)) [µg/mL] | further results
1 | CO/C=C(/C(=O)OC)c1cccc2cc(-c3cccc(OC)c3)oc12 [2 (E)] | 100 |  |  |  | % of effectiveness on plasmopara viticola, Chardonnay vine (Plasmopara viticola): 100%
2 | CO/C=C(/C(=O)OC)c1cccc2cc(-c3ccccc3)oc12 [3 (E)] |  | 250 to 1000 (≈ 811 to 3240 µM) |  |  | 
3 | CO/C=C(/C(=O)OC)c1cccc2cc(-c3ccc(Br)c(C(F)(F)F)c3)oc12 [14 (E), Methyl α[(E)methoxymethylene1-2-4-bromo-3-(trifluoromethyl)-phenyl]benzofuran acetate] |  | 250 to 1000 | < 250 | < 250 | 
4 | CO/C=C(/C(=O)OC)c1cccc2cc(-c3cccc(Cl)c3)oc12 [Example 11 (E)] | 100 | 250 to 1000 (≈ 729 to 2920 µM) |  |  | % of effectiveness on plasmopara viticola, Chardonnay vine (Plasmopara viticola): 100%
5 | CO/C=C(/C(=O)OC)c1cccc2cc(-c3ccc(Cl)cc3)oc12 [12 (E)] | 100 |  | < 250 | < 250 | % of effectiveness on plasmopara viticola, Chardonnay vine (Plasmopara viticola): 100%
6 | CCCCc1cc2cccc(/C(=C\OC)C(=O)OC)c2o1 [18 (E), Methyl α[(E)-methoxymethylene1-2-butyl-7-benzofuran acetate] |  |  | < 250 |  | LC50 (Aphis Cracivora): < 250 µg/mL
7 | CO/C=C(\C(=O)OC)c1cccc2cc(-c3ccccc3)oc12 [3 (Z)] |  | 250 to 1000 (≈ 811 to 3240 µM) |  |  | 
8 | CO/C=C(/C(=O)OC)c1cccc2cc(-c3ccccc3Cl)oc12 [10 (E)] | 100 |  |  |  | % of effectiveness on plasmopara viticola, Chardonnay vine (Plasmopara viticola): 90%
9 | CO/C=C(/C(=O)OC)c1cccc2cc(-c3ccc4c(c3)OCO4)oc12 [17 (E), Methyl α[(E)-methoxymethylene1-2-(3,4-methylenedioxy)-phenyl-7-benzofuran acetate] |  | < 250 |  | < 250 | 
10 | CO/C=C(/C(=O)OC)c1cccc2cc(-c3ccc(Oc4ccccc4)cc3)oc12 [25 (E), Methyl α-[(E)-methoxymethylene]-2-(4-phenoxyphenyl) -7-benzofuran acetate] |  |  |  | < 250 | 
11 | CO/C=C(/C(=O)OC)c1cccc2cc(-c3csc(C(C)C)n3)oc12 [16 (E), Methyl α-(E)methoxymethylene1-7-[2-[4-(2-isopropylthiazolyl)-benzofuranyl]-acetate] |  |  | < 250 |  | 
12 | CO/C=C(/C(=O)OC)c1cccc2cc(-c3ccc(Cl)c(OC)c3)oc12 [15 (E)] |  | 250 to 1000 (≈ 671 to 2680 µM) | 250 to 1000 (≈ 671 to 2680 µM) | < 250 | LC50 (Aphis Cracivora): < 250 µg/mL
13 | CO/C=C(\C(=O)OC)c1cccc2cc(-c3ccc(OC)cc3)oc12 [1 (Z)] | 100 | 250 to 1000 (≈ 739 to 2960 µM) | < 250 |  | 
14 | CO/C=C(/C(=O)OC)c1cccc2cc(-c3cccc(Oc4ccccc4)c3)oc12 [24 (E), Methyl α-[(E)-methoxymethylene]-2-(3-phenoxyphenyl) -7-benzofuran acetate] |  |  |  | < 250 | 
15 | CO/C=C(/C(=O)OC)c1cccc2cc(-c3ccc(OC)cc3)oc12 [Example 1 (E), Methyl α-[(E)-methoxymethylene]-2-(4-methoxy-phenyl)-7-benzofuranacetate] | 90 |  |  |  | LC50 [1]: 250 to 1000 µg/mL (≈ 739 to 2960 µM); LC50 (Tetranychus Urticae): < 250 µg/mL
16 | CO/C=C(/C(=O)OC)c1cccc2cc(-c3csc(-c4ccc(OC(F)(F)F)cc4)n3)oc12 [19 (E), Methyl α[(E)-methoxymethylene]-2-[2-[4-(trifluoromethyxy)-pehny]-4-thiazolyl]-7-benzofuran acette] |  | < 250 |  |  | 
